Legend:
LC3 = experiment: Subcellular distribution of GFP-LC3; type: cell-based, human; details: HeLa transfected with GFP-LC3, 1 μM, 1-4 hours
Method: Subcellular Distribution of LC3. HeLa cells were transiently transfected with a plasmid expressing green fluorescent protein-tagged LC3 (GFP-LC3) using GeneJuice (Novagen, USA). After overnight incubation, HeLa cells were treated 1 (1 μM) for 1, 2, 3, and 4 hours respectively. Green fluorescence of GFP-LC3 was examined under the Olympus IX71 microscope (Melville, N.Y.). Images were captured with CCD digital camera RT COLOR, Spot (Diagnostic Instruments, Inc., Melville, N.Y.).
The redistribution of microtubule-associated protein 1 light chain 3 (LC3) was also examined. LC3 is a maker of autophagosomes in mammalian cells which the localization changes from a diffuse cytosolic pattern to a punctuate pattern representing its recruitment to the autophagosomal membrane during the induction of autophagy. HeLa cells were transfected with plasmid encoded a fusion protein of GFP and LC3 (GFP-LC3), so that the cellular trafficking of LC3 can be directly visualized by live fluorescence microscopy.

HeLa cells [1] = experiment: Transmission electron microscopy of autophagic cells; type: cell-based, human; details: 1 μM, 2 h
Method: Transmission Electron Microscopy. HeLa cells (12×10^4) were seeded on 60 mm plate. Cells were treated with 1 (1 μM) for 2 h, respectively. Cells were then trypsinized, washed twice with PBS and fixed with ice-cold glutaraldehyde (2.5% in 0.1 M cacodylate buffer, pH 7.4) for 30 min. After primary fixation, cells were washed with cacodylate buffer, post-fixed with 1% osmium tetraoxide for 30 min. Osmium tetraoxide was removed and the cell pellet was washed with cacodylate buffer. Pre-warmed gelatin was added to the cell pellet and immediately centrifuged at 2500 rpm for 5 min. The gelatin was dehydrated by immersing in 30% EtOH, 50% EtOH, 70% EtOH once, and in 90% EtOH twice for 5 min and finally in absolutely EtOH for 10 min for three times. The dehydrated sample was washed with propylene oxide twice for 5 min and then immersed in propylene oxide:resin (1:1) for overnight. The sample was immersed in pure resin for 30 min before embedded in Polybed. Specimens were examined using 208S Philips transmission electron microscopy.
Cells treated with 1 were subjected to transmission electron microscopic analysis.

HeLa cells [2] = experiment: Effect of 3-MA on 1-induced cytotoxicity (MTT); type: cell-based, human; details: 3-MA 10 mM 1 h then 1 for 24 h, P<0.001
Method: HeLa cells were pre-treated with 3-MA (10 mM) for 1 h, and then with 1 for 24 h as indicated. Cell viability was measured using MTT assay *, P<0.001. Effect of 3-MA on 1-induced cytotoxicity. Cells were seeded on 96-well microtitre plates (8×10^3 cells per well). After overnight incubation, the cells were pre-incubated with 3-methyladenine (3-MA, 10 mM) for 1 hour and then in the presence of 1 (DMSO<1%) for 24 h. Cell viability was measured by MTT assay as described before.

[3] = test system: different human liver carcinoma cells; experiment: Cytotoxicity toward different human liver carcinoma cells; type: cell-based; details: treatment for 48 h
Excerpt: (§1) Human cervical epitheloid carcinoma cells (HeLa), human hepatocellular carcinoma cells (HepG2 and Hep3B), human breast cancer cells (MCF-7), human coloadenocarcinoma cells (HCT-8), and normal human lung fibroblast cells (CCD-19Lu) were purchased from American Type Culture Collection (ATCC) Rockville, Md., USA. The human hepatocellular cancinoma cells QGY-7703, and the multi-drug resistant cell line QGY-TR50 derived from QGY-7703, were generously provided by Prof. Yong Xie (The Hong Kong University of Science and Technology, Hong Kong PRC). QGY-TR50 cells were isolated and cultured as described (J. Zhou, S. C. Cheng, D. Luo, Y. Xie Biochem. Biophys. Res. Commun. 2001, 280, 1237-1242). Human nasopharyngeal carcinoma cells (SUNE1 and its cisplatin-resistant variant—CNE2) were derived from poorly differentiated NPC in Chinese patients and were generously provided by Dr. S. W. Tsao (The University of Hong Kong, Hong Kong PRC). Cell culture flasks and 96-well microtitre plates were from Nalge Nunc Int. Culture medium, other medium constituents and phosphate buffer saline (PBS) were obtained by Gibco BRL Rockville, Md., USA. Cell Proliferation kit I (MTT) was purchased from Roche. Mannheim, Germany.

[4] = test system: normal human lung fibroblast cells (CCD-19Lu); experiment: MTT cell viability assay, CCD-19Lu; type: cell-based
Excerpt: as §1

Caspase 3 = experiment: Western blotting analysis, caspase 3; type: cell-based, human; details: HeLa, 2 μM, 32 h
Method: Cells were washed in cold phosphate-buffered saline (PBS) at 4° C. and lysed in a buffer containing 0.05 M Tis.HCl (pH 7.5), 0.25 M NaCl, 0.005 M EDTA, 0.05 M NaF, 1 mM DTT and 1% Triton. Cell lysates were collected and the protein concentration of cell lysates was measured using a Protein detection kit (Bio-Rad). Equal amount of proteins was resolved in a 12% SDS-PAGE gel and transferred onto nitrocellulose membranes. The membrane was blocked with a blocking solution (1×TBS, 0.1% Tween-20 with 5% non-fat dry milk) at room temperature for 1 h, and washed three times with washing buffer (1×TBS, 0.1% Tween-20) for 5 min each. The membrane was then incubated with primary antibody (Caspase 3, Bid, PARP and β-Actin respectively) for overnight at 4° C. The membrane was washed three times with washing buffer for 5 min each before incubation with the corresponding secondary antibody (horse anti-mouse IgG or goat anti-rabbit IgG). Membrane was washed again and signals were detected using an ECL detection kit (Amersham Pharmacia Biotech) followed by the exposure to X-ray films (Fujifilm).
After treatment with complex 1 for different time intervals, the expressions of caspase 3, Bid and PARP were detected by the Western blotting analysis. […] Moreover, treatment with complex 1 leads to a reduction in the level of un-cleaved Bid.

[5] = test system: human nasopharyngeal carcinoma cells (SUNE1); experiment: MTT cell viability assay, SUNE1; type: cell-based
Excerpt: as §1

[6] = test system: human breast cancer cells (MCF-7); experiment: MTT cell viability assay, MCF-7; type: cell-based
Excerpt: as §1

[7] = Stability by UV-visible in DMSO/Tris buffer; type: physicochemical; details: DMSO/Tris buffer solution (1:9), 24 h, room temperature; complex 1 3 μM, complex 2b 7 μM
Method: UV-visible experiments. The absorption spectra of 3 μM of complex 1 in DMSO/Tris buffer solution (1:9) were monitored for 24 h. […] The complex was monitored over 24 h at room temperature and about 23% decrease in the Soret band intensity was recorded without any significant spectral shift in both Soret and Q-bands (FIG. 5). The absorption spectra of 7 μM of complex 2b in DMSO/Tris buffer solution (1:9) were also monitored for 24 h.

[8] = IC50 of cisplatin divided by IC50 of complex

[Yb2(OEP)2](μ-OH)2 [Complex 1]
redistribution of GFP-LC3 (LC3): time-dependent increase in punctuated green fluorescence
autophagic vacuoles by transmission electron microscopy (HeLa cells [1]): vesicular structures reminiscence of autophagic vacuoles
effect of 3-MA pretreatment on viability of 1-treated cells (HeLa cells [2]): significantly increases cell viability
IC50 [3]: 60 to 780 nM
IC50 ratio cisplatin/complex, CCD-19Lu [4, 8]: 16.8
IC50 ([4]; MTT, 37° C., 48 h, mean ± SD): 5400 ± 6800 nM
expression of caspase 3 (Caspase 3): decrease dramatically
IC50 ratio cisplatin/complex, SUNE1 [5, 8]: 4.8
IC50 ([5]; MTT, 37° C., 48 h, mean ± SD): 2450 nM
IC50 ratio cisplatin/complex, MCF-7 [6, 8]: 63.89
IC50 ([6]; MTT, 37° C., 48 h, mean ± SD): 550 nM
cytotoxic activity toward breast cancer cell line (MCF-7), times higher than that of cisplatin ([6]; compared with cisplatin): 60 times
decrease in Soret band intensity [7]: about 23%
